Columns and labels:
[1] = system: auricular ganglionic cells; assay: Count of the auricular ganglionic cells in oxazolone-sensitized mice; assay type: in vivo, Balb/c mice; details: dose series, day 12, cells per animal
Procedure: (§1) 8-week-old Balb/c mice are pretreated on the abdominal skin from day 1 to day 6 using product A or B, or A and B diluted in ethanol. On day 6, the mice are actively sensitized by the topical application of 50 mg of oxazolone (oxa) in ethanol onto the abdominal skin. On day 11, an application of 20 mg of oxa in ethanol is performed on the right ear.
On day 12, one day after the repeated application of the oxa, the animals were sacrificed by cervical dislocation. The ganglionic cells are collected and combined by experimental group. A cell suspension is prepared and the cells are then counted. The number of cells is expressed per animal.

mouse ear oedema = assay: Ear oedema in the delayed hypersensitivity model of mice sensitized with a hapten (oxazolone); assay type: in vivo, Balb/c mice
Procedure: This test represents a reliable model for predicting the immunomodulatory properties of a product in a pathology of Th1 type such as psoriasis.
as §1
Student's t test was used for the statistical analysis of the results.
The thickness of the ear is measured, using a micrometer, on day 11 (just before the application of oxazolone to the presensitized mice) and after 24 hours, on day 12. The ear oedema is expressed as the difference between the measurement of the thickness of the ear between day 12 and day 11. The values of the thickness of the ear are analyzed statistically using Student's t test.

CCC(=O)O[C@]1(C(=O)CCl)[C@@H](C)C[C@H]2[C@@H]3CCC4=CC(=O)C=C[C@]4(C)[C@@]3(F)[C@@H](O)C[C@@]21C [product B, clobetasol propionate]
effect on the count of auricular ganglionic cells (FIG. 3) [1]: dose-response effect | efficacy on inflammation (ear oedema, FIGS. 1 and 2) (mouse ear oedema; clobetasol propionate alone at 0.01%, topical): moderate efficacy | effect of topical application on the intensity of mouse ear oedema (FIG. 1) (mouse ear oedema; dose series, topical pretreatment day 1 to day 6, oedema = ear thickness day 12 minus day 11): dose-response effect

Source: patent publication US20060009426A1, “Pharmaceutical compositions comprising calcitriol and a clobetasol propionate” (GALDERMA RESEARCH & DEVELOPMENT, S.N.C., priority 2002, published 2006)
